Key:
[1] = tested on: wild-type and FALS mutant (Ala4→Val, Ile113→Thr) SOD-1 in 293 cells; experiment: Dose response of SOD-1 isoforms in stably transformed 293 cell lines; format: cell-based, human
Protocol: Cells were maintained in G418 selection for three weeks at which time drug selection was removed and the G418-resistant colonies of each transformed cell type were pooled for further growth. Compound 14 was utilized in these studies.
Cell lines expressing the indicated SOD-1 isoforms were incubated with various concentrations of compound 14 for 24 hours at which time the SOD-1 levels were measured by densitometric scanning of immunoblots.

[2] = tested on: Ile113→Thr mutant SOD-1 in human 293 cells; experiment: SOD-1 levels in transiently transfected 293 cells (immunoblot); settings: 5 μM, 24 hours, FIG. 5
Protocol: The human kidney cell line designated 293 (human 293 cells or 293 cells)was obtained from the American Type Culture Collection (ATCC), 12301 Parklawn Drive, Rockville, Md., 20852 (ATCC #CRL 1573) and grown in Dulbecco's modified Eagle's medium with 4.6 g/L glucose, 10% heat-inactivated horse serum (Gibco/Life Technologies Inc. Gaithersburg, Md.). The human 293 cells were maintained at 37° C. in an atmosphere of 5% CO2. The 293 cells were transiently transfected using the calcium phosphate method (Chen, C. et al., Biotechniques 6: 632 (1988). The pCMV-113 SOD-1 expression vector was introduced into 293 cells and 24 hours later, the cells were incubated with either compound 34, compound 14, or compound 24, all at a concentration of 5 μM, for a duration of 24 hours. The known MCP and other protease inhibitory compounds were solubilized in dimethyl sulfoxide (DMSO). Other 293 cell cultures were incubated with an equal volume of DMSO or left in medium only as negative controls.
Approximately 48 hours prior to receiving test compounds, 5×10^5 293 cells were seeded in 36 mm dishes and maintained at 37° C. in an atmosphere of 5% CO2. Cells were incubated with MCP inhibitors (compound 34, 14 or 24) or with DMSO as a negative control for a duration of 24 hours. Cell lysates were prepared by lysing the cells in approximately 75 μl of phosphate-buffered saline (PBS) by freeze/thaw cycling. Protein concentrations of the cell lysates were determined using the BCA method (Pierce, Rockford, Ill.) and 2 to 2.5 μg of each sample was electrophoresed on a 4-20% polyacrylamide geol (Novex, San Diego, Calif.) using a Tris/glycine/SDS (25 mM Tris/192 mM glycine/0.1% SDS) buffer system. […] Stained bands corresponding to SOD-1 protein were quantitated using a DocuGel V image analysis system and RFLPscan software (Scanalytics, Billerica, Mass.). Levels of SOD-1 are expressed as units of induction relative to the negative control (i.e., units of experimental divided by units of control).

[3] = tested on: Ala4→Val mutant SOD-1 in transformed 293 cells; experiment: Specificity of MCP activity in SOD-1 turnover, Ala4→Val cell line; format: cell-based, human; settings: 20 μM, 24 hours; FIG. 7; relative to untreated samples
Protocol: (§1) Res. Comm. (1988) 153: 1201.), a cell penetrating "calpain" inhibitor (calpain is a cysteine protease); and DK-3 (Enzyme Systems Products, Dublin, Calif. CBZ-Phe-Ala-CHN2) inhibits lysosomal protease activity. […] Cell lines expressing the indicated SOD-1 isoforms were incubated for 24 hours with the following protease inhibitors: Compound 14, 20 μM; Calpeptin, 10 μM; DK-3, 5 μM; Compound 16, 20 μM; or with DMSO as a negative control. After the 24 hours of incubation with the inhibitors, SOD-1 levels were measured by densitometric scanning of immunoblots. […] Each data point is the average of results from three experiments.

[4] = tested on: wild-type SOD-1 in transformed 293 cells; experiment: Specificity of MCP activity in SOD-1 turnover, wild-type cell line; format: cell-based, human; settings: 20 μM, 24 hours; FIG. 7
Protocol: as §1

CC(C)C[C@@H](C=O)NC(=O)[C@H](CCCNC(=N)N[N+](=O)[O-])NC(=O)C(CCCCCCCCC#N)C1CCCC1 (stereo partly drawn) [Compound 14, 10-cyano-2-cyclopentyldecanoyl-N^g-nitro-L-arginyl-L-leucinal]
Concentration giving maximal SOD-1 accumulation ([1]; 24 hours, FIG. 6): approximately 20 μM | Reduction of wild-type and mutant SOD-1 degradation ([1]; summary statement): reduces wild-type and mutant SOD-1 degradation in a dose-dependent manner | Accumulation of SOD-1 protein levels ([1]; various concentrations, 24 hours, FIG. 6): significant accumulations of SOD-1 protein levels | Effect on turnover of the wild-type SOD-1 protein ([1]; wild-type SOD-1 cell line, dose response): statistically significant effect | SOD-1 levels compared to controls [2]: modestly elevated | Increase in the accumulation of SOD-1 protein (Ala4→Val mutant) [3]: three-fold | Wild-type SOD-1 accumulation [4]: slight increase

— patent US5990083A, “Multicatalytic protease inhibitors” (Cephalon, Inc., priority 1997, dated 1999)
